In patent US20210177893A1, “Composition and method for treating and healing Medication-Related Osteonecrosis of the Jaw (MRONJ)” (priority 2019, published 2021):

Assays:
MRONJ [1] = conditions: oral alendronate users, 208 patients; cited from earlier work
MRONJ [2] = conditions: out of 24 patients treated with 0.12% chlorhexidine; cited from earlier work
[3] = tested on: capillary neoangiogenesis; conditions: cited from earlier work
[4] = in the glycerin gels; cited from earlier work
[5] = tested on: oral mucosal cells (human gingival fibroblasts and keratinocytes); conditions: direct application, in vitro; cited from earlier work
MRONJ lesions = test: Clinical observation of MRONJ patients (Example 1); format: in vivo, human; conditions: one patient on intravenous zoledronate, multiple myeloma; lesion smoothed, antibiotic regimen; observed a little over a year

NCCCC(O)(P(=O)(O)O)P(=O)(O)O [alendronate]
MRONJ prevalence rate (MRONJ [1]): 4%

[H]/N=C(\N/C(=N/[H])NCCCCCCNC(=N)NC(=N)Nc1ccc(Cl)cc1)Nc1ccc(Cl)cc1 [chlorhexidine]
patients who experienced MRONJ progression (MRONJ [2]): 13 patients
patients who experienced MRONJ resolution (MRONJ [2]): 3 patients
patients who experienced no change in ONJ status (MRONJ [2]): 8 patients

NCCC(O)(P(=O)(O)O)P(=O)(O)O [pamidronate]
effect on new formation of capillaries from blood vessels (capillary neoangiogenesis) [3]: inhibit the new formation of capillaries from blood vessels

[F][Sn][F] [stannous fluoride]
stability [4]: relatively stable

O=P(O)(O)C(O)(Cn1ccnc1)P(=O)(O)O [zoledronic acid]
effect on the life of oral mucosal cells [5]: deleterious effect on the life of these cells

Augmentin
outcome of bone lesion (MRONJ lesions): continued to increase in size and did not heal
